# Reference: patent US20220184034A1, “METHODS FOR TREATING CUTANEOUS METASTATIC CANCERS” (Adgero Biopharmaceuticals Holdings, Inc., priority 2020, published 2022)
# What was measured:
# Assay type in all cases: in vivo, patients
# [1] = test system: cutaneous lesions arising from either basal cell cancer, squamous cell cancer or CMBC; assay: Phase 1/2 dose escalation study of SnET2 PDT: acute lesion reaction grade at Week 1; settings: Week 1 post-treatment
# Experimental: Two Phase 1/2 studies established the clinical dosimetry. The first study was a dose escalation study that enrolled a total of 22 patients with cutaneous lesions arising from either basal cell cancer, squamous cell cancer or CMBC. A total of 213 lesions were treated using photosensitizer SnET2) doses ranging from 0.1-1.2 mg/kg, light doses of 100, 150 or 200 J/cm^2 and treatment timepoints of 24, 48, or 72 hours post-infusion. Two key measures were utilized in these studies, lesion reaction and lesion response. Lesion reaction was an acute characterization of the treatment effect that was performed out to 1 week post-treatment according to the following scale: • Grade 0=No visual erythema or edema • Grade 1=Faint erythema and/or slight edema • Grade 2=Moderate erythema and edema • Grade 3=Severe discoloration, edema, sloughing or eschar
# A further analysis was undertaken to explore the relationship between the acute lesion reaction and the lesion response. […] Following are the results from patients who were scored for lesion reaction at Week 1 post-treatment and who received a drug dose of 0.8 mg/kg or higher. […] For the 0.8 mg/kg cases, only 5 of the 37 lesions (14%) received the highest lesion reaction score. In the case of the 1.2 mg/kg dose group, the percentage of lesions with the maximum lesion reaction score, 13 of 22 (59%), was substantially higher.
# [2] = test system: CMBC lesions; assay: Four phase 2/3 studies of SnET2 PDT: lesion treatment response; settings: 1.2 mg/kg; for Responders / Response Rate of Evaluable Lesions: 200 J/cm^2, ~24 h, lesions larger than 1 cm; for lesion response rate: 200 J/cm^2
# Experimental: (§1) A factor that impacts clinical outcome is the time delay required for post-treatment effects to resolve. This factor is observed in the results from four subsequent phase 2/3 studies of CMBC lesions using a fixed drug dose of 1.2 mg/kg and a fixed light dose of 200 J/cm^2 administered at approximately 24 hours post-infusion. In these studies lesions were first scored for lesion reaction and then scored for lesion treatment response after the lesion reaction had resolved. In the case of lesion reaction scoring, the reaction was first assessed by the investigator at approximately 4-week intervals and assigned a Reaction Score according to the following defined terms: • 0=No erythema, edema or residual eschar • 1=Mild (faint) erythema and/or slight edema present • 2=Moderate erythema and edema present • 3=Severe erythema and edema present • 4=Sloughing, ulceration, and/or eschar present • 5=Eschar requiring debridement
# (§2) Once a lesion scored a Reaction Score of 0 or 1 it was deemed suitably healed for evaluation, at which time its treatment response was quantified by visual measurement of the two longest dimensions. In those cases where the patient left the study before a reaction score of 0-1 was reached, those lesions were classified as not evaluable.
# (§3) An analysis conducted of the median time to lesion evaluation (time to reach a reaction score of 0 or 1) in these same four phase 2/3 CMBC trials indicates the time delay for post-treatment effects to resolve was closely associated with the acute (week 1-2 post-treatment) lesion reaction score, with higher acute reaction scores being associated with a longer time to lesion evaluation, consistent with a more severe treatment reaction requiring a longer time to resolve. […] Because larger lesions are most likely to be clinically relevant, this table only includes those lesions from the same four CMBC phase 2/3 trials that had baseline dimensions larger than 1 cm.
# [3] = test system: CMBC lesions; assay: Four phase 2/3 studies of SnET2 PDT: lesion reaction score and time to lesion evaluation; settings: 1.2 mg/kg; for Median Evaluable Week / Total with Max Reaction During Trial ≥4: 200 J/cm^2, ~24 h, lesions larger than 1 cm; for median time to evaluation: 200 J/cm^2
# Experimental: Subsequent studies were conducted with dose parameters of 1.2 mg/kg of photosensitizer, 200 J/cm^2 of light, and 24 hours post administration as a treatment timepoint.
# as §1, §2, §3
# [4] = acute lesion reaction score 0-1
# [5] = acute lesion reaction score 2-3
# [6] = acute lesion reaction score 4-5
substance,measurement,setting,value
tin ethyl etiopurpurin [SnET2],% with Max Rx Score at Week 1,"[1]; 0.8 mg/kg, 100 J/cm^2",0%
same,Total with Max Rx Score at Week 1,"[1]; 0.8 mg/kg, 100 J/cm^2",0
same,% with Max Rx Score at Week 1,"[1]; 0.8 mg/kg, 150 J/cm^2",7%
same,Total with Max Rx Score at Week 1,"[1]; 0.8 mg/kg, 150 J/cm^2",1
same,% with Max Rx Score at Week 1,"[1]; 0.8 mg/kg, 200 J/cm^2",27%
same,Total with Max Rx Score at Week 1,"[1]; 0.8 mg/kg, 200 J/cm^2",4
same,lesions with the highest lesion reaction score,[1]; 0.8 mg/kg,5 of the 37
same,percentage of lesions with the highest lesion reaction score,[1]; 0.8 mg/kg,14%
same,% with Max Rx Score at Week 1,"[1]; 1.0 mg/kg, 100 J/cm^2",0%
same,Total with Max Rx Score at Week 1,"[1]; 1.0 mg/kg, 100 J/cm^2",0
same,% with Max Rx Score at Week 1,"[1]; 1.0 mg/kg, 150 J/cm^2",0%
same,Total with Max Rx Score at Week 1,"[1]; 1.0 mg/kg, 150 J/cm^2",0
same,% with Max Rx Score at Week 1,"[1]; 1.0 mg/kg, 200 J/cm^2",0%
same,Total with Max Rx Score at Week 1,"[1]; 1.0 mg/kg, 200 J/cm^2",0
same,% with Max Rx Score at Week 1,"[1]; 1.2 mg/kg, 100 J/cm^2",33%
same,Total with Max Rx Score at Week 1,"[1]; 1.2 mg/kg, 100 J/cm^2",2
same,% with Max Rx Score at Week 1,"[1]; 1.2 mg/kg, 150 J/cm^2",78%
same,Total with Max Rx Score at Week 1,"[1]; 1.2 mg/kg, 150 J/cm^2",7
same,% with Max Rx Score at Week 1,"[1]; 1.2 mg/kg, 200 J/cm^2",57%
same,Total with Max Rx Score at Week 1,"[1]; 1.2 mg/kg, 200 J/cm^2",4
same,lesions with the maximum lesion reaction score,[1]; 1.2 mg/kg,13 of 22
same,percentage of lesions with the maximum lesion reaction score,[1]; 1.2 mg/kg,59%
same,Responders,[2]; [4],48
same,Response Rate of Evaluable Lesions,[2]; [4],63%
same,Responders,[2]; [5],168
same,Response Rate of Evaluable Lesions,[2]; [5],81%
same,Responders,[2]; [6],179
same,Response Rate of Evaluable Lesions,[2]; [6],88%
same,lesion response rate,[2]; acute lesion reactions of 2-3,81%
same,lesion response rate,[2]; acute reactions of 4-5,88%
same,healing following treatment,"[3]; 200 J/cm^2, 24 hours post administration",slow healing following treatment was observed
same,Median Evaluable Week,[3]; [4],1 Week
same,Total with Max Reaction During Trial ≥4,[3]; [4],14
same,Median Evaluable Week,[3]; [5],6 Week
same,Total with Max Reaction During Trial ≥4,[3]; [5],165
same,Median Evaluable Week,[3]; [6],12 Week
same,Total with Max Reaction During Trial ≥4,[3]; [6],496
same,median time to evaluation,[3]; acute lesion reactions of 2-3,6 weeks
same,median time to evaluation,[3]; acute reactions of 4-5 (eschar or ulceration),12 weeks
